Some results are limits rather than exact numbers.

For orientation: melting point means the temperature, or range, at which the solid turns liquid. Take `CC(=O)N[C@H]1CC[C@H](c2ccc(N)cc2)CC1`: the melting point was 195 to 196 °C. Next, `FC(F)c1nc2ccccc2n1-c1nc(N2CCOCC2)nc(N2CCOCC2)n1`: 211 to 214 °C; `COC(=O)c1cccc2c1nc(-c1c(F)cccc1F)n2Cc1c(F)cccc1F`: 184 to 186 °C. The compound `C#CCN1C(=O)COc2ccc(-c3ncc(C(F)(F)F)cc3Cl)cc21` yielded a melting point of 136 to 137 °C. The value for `CCCCN(CCCC)C(=O)C1=NN(c2ccccc2)C(C(N)=O)=NN1c1ccccc1` was 160 to 161 °C; that for `O=C(O)C1Cc2ccc3ccccc3c2C1` (single isomer, unassigned; (-)) was 139 to 141 °C; that for `CC1OC(=O)N2c3ccc(O)cc3CCC12` (stereo not given) was 258 to 259 °C. The value for `COc1ccc(-c2ccc(-c3ccc(C(=O)O)cc3)cc2-c2ccc3c(c2)C(C)(C)CCC3(C)C)cc1` was 112 to 115 °C; that for `CC1COC(c2ccccc2)(c2ccc(Cl)nc2)O1` (stereo not given) was 44 to 51 °C; that for `c1ccc(Sc2cc(Sc3ccccc3)ncn2)cc1` was 117 °C. Consider `O=S(=O)(O)c1cccc(NCc2cccc(C(F)(F)F)c2)c1`, for which the melting point is above 275 °C. The value for `COC(=O)c1cc(-c2ccc(OC)c(Cl)c2)nn(CC(C)C)c1=O` was 108 to 109 °C; that for `CCCCCCCCCCCCCCCCCCNC(=O)OCC(CNS(=O)(=O)CCCCl)NC(C)=O` (stereo not given) was 110 to 112 °C. In the case of `CCN1C(=O)C(C)(C)C(=O)N(C)c2cc(CN(CCn3ccc4oc(C)cc4c3=O)Cc3ccccc3C=O)ccc21`, the melting point fell in the range of 157 to 158 °C.

In turn, `COc1ccc2c(c1)C(=NOCCN1CCCC1)c1c-2c(N2CCNCC2)nc2ccccc12` returned a melting point of 126 to 128 °C. The value for `Cn1cc(-c2cccc(Cl)c2)c(=S)c(-c2cccc(Cl)c2)c1` was 210 to 212 °C; that for `Cc1ccc(C(=O)Cn2c(=NS(=O)(=O)c3ccc(C)cc3)sc3ccccc32)cc1` was 180 to 182 °C; that for `CN1C(=O)c2cscc2Nc2cc(Cl)c(Cl)cc21` was 265 to 267 °C. The compound `CCNC(=O)c1ccccc1Nc1nc(Nc2cc3c(cc2OC)CCN(CC(=O)N(C)C)CC3)ncc1Cl` showed a melting point of 99 to 111 °C. Take `CCCCOCC(COCc1ccccc1)OCn1cnc2c(O)nc(NC(C)=O)nc21` (stereo not given): the melting point lay in the range of 139 to 141 °C. `CCOC(=O)c1nnc2n1CC(=O)N(C)c1ccc(Cl)cc1-2` displayed a melting point of 201 to 202 °C. Next, `O=C(O)CNC(=O)CBr`: 90 to 91 °C; `CCCCNC(=O)Nc1ccc(NC)cc1C(=O)NCC1CCN(C(c2ccccc2)c2ccccc2)CC1`: 203 to 204 °C; `Cc1ccc(C=Cc2ccc(N(c3ccccc3)c3ccc4c5c(cccc35)CC4)cc2)cc1`: 148 to 149 °C. The value for `CC(=CCc1c(O)c(C)c2c(c1OS(=O)(=O)c1ccc(C)cc1)C(=O)OC2)CCC(=O)O` was 148 to 149 °C; that for `CN1CCSc2c(C(=O)NC3CN4CCC3CC4)cc(Cl)cc21` (stereo not given) was 195 to 196 °C; that for `CCOP(=O)(Cc1cc(=O)[nH]c2cc(I)ccc12)OCC` was 196 to 198 °C. Next, `COc1cc(N)c2nccc(C)c2c1OCCCCc1ccccc1`: 59 to 59.5 °C; `CCCc1nc2c(N)nc3cc(-c4ccccc4)ccc3c2n1CC(C)(C)NS(C)(=O)=O`: 135 to 141 °C; `COc1ccc2c(c1OC)C[C@@H](C1CCN(CCc3ccccc3)CC1)O[C@H]2CN` (relative stereo): 100 to 102 °C. Consider `O=C(Nc1ccccc1)c1ccc2c(c1)N(C1CC1)CNS2(=O)=O`, for which the melting point fell in the range of 232 to 234 °C. The value for `Nc1ccc(-n2ncnc2-c2ccccc2)cc1` was 161 to 163 °C; that for `Cc1oc(=O)c(Nc2ccc(I)cc2)nc1Cl` was 203 to 205 °C. Compound `N#Cc1ncccc1C(=O)ON=Cc1ccc(Cl)cc1` had a melting point of 160 °C.

The compound `COc1cc2c(cc1Cl)C(=O)Cc1ccc(F)cc1S2` returned a melting point of 195 to 197 °C.

As to `CC(C)(C)NC(=O)[C@@H]1C[C@H](Cl)CN1C(=O)[C@@H](O)[C@H](Cc1ccccc1)NC(=O)[C@H](CC(N)=O)NC(=O)c1cnc2ccccc2n1`, the melting point lay within 132 to 134 °C. The value for `CCOC(=O)c1nc(C(C)(C)C)nc2ccccc12` was 46 to 47 °C; that for `COc1ccc(CCCC2CCNCC2)cc1` was 65 to 70 °C. Next, `CN1CCC2(C)c3cc(O)cc(Cl)c3N(C)C12` (stereo not given): 152 to 154 °C.

As for `CC(C)(CNS(=O)(=O)c1ccc(-c2ccccn2)s1)N1CCC(Oc2ccc(F)c(F)c2)CC1`, the melting point fell in the range of 133 to 134 °C.

`Brc1ccc2scc(Br)c2c1`: the melting point was 95 to 97 °C. In the case of `CSc1ccc(C2=CC(=O)C(C)(C)O2)cc1`, the melting point was 107 to 109 °C. The compound `Cc1c(CC(=O)O)c2cc(OCc3nc4ccccc4s3)ccc2n1Cc1ccc(Cl)cc1` registered a melting point of 175 to 176 °C. Next, `O=c1[nH]c(=O)n(CCCBr)c2ccccc12`: 159 to 170 °C.

In the case of `O=C(O)Cc1cccc2ccoc12`, the melting point is 115 to 118 °C.

Compound `CCOC(=O)c1c(CCl)nc2cc(OC)c(OC)cc2c1-c1ccc(OC)c(OC)c1` displayed a melting point of 147 to 148 °C.

For the compound `CCc1nc2c(O)c(CCC(=O)c3ccccc3)c(C(=O)N(C)C)cc2n1C`, the melting point was 177 to 180 °C. In turn, `CC(C)c1ccc(-c2csc(-c3cccc(C(=O)O)c3)n2)cc1` registered a melting point of 206 to 208 °C.

With `COC(=O)c1cscc1O`, the melting point lay in the range of 40 to 43 °C. On to `CCc1c(-c2ccc(OC)cc2)c2c3c(c4cc(OC)cc1n42)C(=O)OC3=O`, for which the melting point is 249 to 251 °C. Next, `CC(=O)Nc1ccccc1S(N)(=O)=O`: 154 to 156 °C; `N#CCCOc1cccc(O)c1C=O`: 84 to 86 °C. Next, `O=C(NC1CCCCCCC1)NC1CCCCC1`: 194 °C; `C[C@H](NC(=O)c1ccccc1)C(=O)N[C@@H](C)C(=O)Nc1ccccc1`: 245 to 248 °C; `CC(=O)NC(C)COc1c(C)cccc1C` (stereo not given): 85 to 85.8 °C. Next, `Cc1cc(C2=C(Cl)CCN(C(=O)c3ccccc3)C2)no1`: 86 to 87 °C; `CCOC(=O)c1ccc2c(c1)C=C(n1ccnc1)CC2`: 113 to 116 °C. Consider `O=C(O)c1cnc(CO)s1`, for which the melting point amounted to 193 °C.

`Cc1nc2c(-c3cccc(N4CCOCC4)c3)cnn2c(N)c1-c1cccc(Cl)c1`: the melting point was in the range of 165 to 167 °C. With `C=CCN1CC(c2ccccc2)=C(OCCN(C)C)C1=O`, the melting point was 115 to 117 °C. The value for `CC(C)(C)c1ccc(-c2nn3c(=O)c([N+](=O)[O-])c(Cl)nc3s2)cc1` was 245 to 248 °C. Next, `Nc1nc2ccccc2c2c1ncn2CCCCCCNC(=O)c1ccccc1`: 146 to 155 °C; `O=c1oc2ccccc2c(O)c1C1CC(c2ccc(Oc3ccc(-c4ccc(Cl)cc4)cc3)cc2)Cc2ccccc21` (stereo not given): 132 °C; `CCc1cc(O)n(-c2ccccn2)n1`: 189 °C. For `O=C(NN1CCCC1)C(CS)Cc1ccccc1` (stereo not given), the melting point was 93 °C.

The values are drawn from a melting point compilation (Tetko et al.; mined from patent text by program, amines drawn as free bases though some values may be those of a salt).
